Where no end group is shown, it is not given here.
Experiments:
[1] = tested on: Pseudomonas aeruginosa strain 1034; assay: In vivo antimicrobial activity, infected skin wound; design: species or system BALB/c mouse
Protocol: By using Hp1404-T1e found to have the most excellent antimicrobial activity among the peptides that are prepared by the method of Example 1, in vivo antimicrobial activity was measured. Specifically, among the Pseudomonas aeruginosa strains, strain 1034 was selected and tested. The strain was prepared by washing 3 times with PBS buffer. Ciprofloxacin antibiotic was used as a control group. A BALB/c mouse (6 week old) was shaved clean and a wound with pre-determined size was created thereon. Then, the wound site was injected intracutaneously with Pseudomonas aeruginosa strain 1034 ([…], 2×10^5 CFU/ml). After the bacterial infection, the peptide and antibiotic, each prepared at a concentration of 0.1 mg/ml and 0.2 mg/ml, respectively, were intracutaneously injected, and the observation was made everyday. On each day, the skin tissues were sampled and smeared on an NB solid medium. The smeared medium was incubated in an incubator for 18 hours, and the number of grown colonies was counted and expressed in %.

L. monocytogenes = assay: MIC, L. monocytogenes; assay type: cell-based, Listeria monocytogenes; conditions: L. monocytogenes (KCTC 3710), 18 hours at 37° C.
From the text: (§1) To compare the antimicrobial activity among the peptides produced by the method of Example 1, the inventors of the present invention measured the minimal growth inhibitory concentration (MIC), which is minimum concentration of the peptide showing no dissociation of bacterial cells.
(§2) Specifically, the bacterial strain described in the following Table 2 was purchased and cultured to a mid-log phase in each medium with a composition suitable for each strain. Then, after dilution to bacterial cell concentration of 2×10^4 cells/100 μl, the cells were inoculated to a microtiter plate (NUNC, USA). Thereafter, Hp1404-T1, Hp1404-T1a, Hp1404-T1b, Hp1404-T1c, Hp1404-T1d or Hp1404-T1e peptide which has been synthesized in Example 1 above was subjected to serial dilution, ½ times for each, with BSA (bovine serum albumin) solution in a 96-well plate. After adding the cells to a plate, the cells were cultured for 18 hours at 37° C. By using a microtiter plate reader (Merck Elisa reader, Germany), the absorbance was measured at a wavelength of 600 nm to determine the MIC value of each bacterial strain. As a control group, Hp1404 as a mother peptide was used.

[2] = tested on: erythrocytes of a mouse (Balb/c); assay: Hemolytic activity; assay type: cell-based
Protocol: To compare the cytotoxicity among the peptides that are produced by the method of Example 1, erythrocyte hemolytic activity of the synthesized peptide was measured.
Specifically, erythrocytes of a mouse (Balb/c, 6 week old, female) were diluted in physiological saline (PBS, pH 7.0) to have concentration of 8%, and then subjected to a treatment with Hp1404, Hp1404-T1, Hp1404-T1a, Hp1404-T1b, Hp1404-T1c, Hp1404-T1d or Hp1404-T1e, each at concentration of 6.25, 12.5, 25.0, 50.0, 100.0 and 200.0 μM/well, respectively, followed by a reaction for 1 hour at 37° C. After that, the amount of hemoglobin contained in a supernatant collected by centrifuge at 1,000×g was determined by measuring the absorbance at a wavelength of 414 nm. As a control group to be used as a reference for cell disruption level, the supernatant collected by a treatment with 1% Triton X-100 (Sigma, USA) and a reaction for 1 hour at 37° C. was used to measure the absorbance. By setting the resulting absorbance value at 100%, the hemolytic activity of each peptide was calculated using the following mathematical formula 1. Erythrocyte disrupting ability (hemolysis) (%)=(Absorbance A−Absorbance B)/(Absorbance C−Absorbance B)×100 [Mathematical formula 1] (in the above formula, Absorbance A indicates the absorbance of a reaction solution treated with each peptide, in which the absorbance is measured at a wavelength of 414 nm; Absorbance B indicates the absorbance of a reaction solution treated with PBS, in which the absorbance is measured at a wavelength of 414 nm; and Absorbance C indicates the absorbance of a reaction solution treated with 1% Triton X-100, in which the absorbance is measured at a wavelength of 414 nm).

E. coli = assay: MIC, E. coli; assay type: cell-based, Escherichia coli; conditions: E. coli (ATCC 25922), 18 hours at 37° C.
From the text: as §1, §2

[3] = Cytotoxicity in normal cell line (MTT); assay type: cell-based; conditions: human, HaCaT keratinocytes, read-out: Cell survival ability; for viability at 24 h, 6.25 µM: peptide concentration 6.25 μM; for viability at 24 h, 12.5 µM: peptide concentration 12.5 μM; for viability at 24 h, 25 µM: peptide concentration 25 μM; for viability at 24 h, 50 µM: peptide concentration 50 μM; for viability at 24 h, 100 µM: peptide concentration 100 μM; for viability at 24 h, 200 µM: peptide concentration 200 μM, HaCaT
Protocol: To determine the cytotoxicity of the peptide produced by the method of Example 1 in normal cell line, toxicity was measured by using human keratinocytes (HaCaT cell line, Dr. N E. Fusenig, Heidelberg, Germany).
Specifically, HaCaT cells which have been cultured in DMEM medium containing 10% FBS (Fetal Bovine Serum) were aliquoted in a 96-well plate to have 2×10^5 cells per well. After culturing them for 24 hours, the cells were subjected to a treatment with Hp1404, Hp1404-T1, Hp1404-T1a, Hp1404-T1b, Hp1404-T1c, Hp1404-T1d, or Hp1404-T1e, each at concentration of 6.25, 12.5, 25.0, 50.0, 100.0 or 200.0 μM/well, followed by reaction for 24 hours in a 5% CO2 incubator. After 24 hours, a reaction solution containing 0.5 mg/ml MTT (Thiazolyl Blue Tetrazolium Bromide) dissolved in physiological saline (PBS) was added in an amount of 100 μl to each well and the reaction was allowed to occur for 4 hours. After that, the supernatant was removed, and, by dissolving MTT crystals that are formed by adding 200 μl of DMSO (dimethyl sulfoxide), the absorbance at 560 nm was measured to determine the cell survival ability.

S. aureus = assay: MIC, S. aureus; assay type: cell-based, Staphylococcus aureus; conditions: S. aureus (ATCC 25923), 18 hours at 37° C.
From the text: as §1, §2

[4] = tested on: lipopolysaccharide (LPS) isolated from P. aeruginosa; assay: Binding ability between lipopolysaccharide (LPS) and peptide; conditions: peptide at 1×MIC
Protocol: By using the peptides prepared by the method of Example 1, binding to lipopolysaccharide (LPS), which is a constitutional component of a cell wall of Gram-negative bacteria, was examined. LPS used in the present invention was isolated from P. aeruginosa. Lipopolysacchride (0 to 100 μg/ml) was diluted with 10 mM sodium phosphate buffer (pH 7.2), reacted with each peptide at a concentration of 1× or 2×MIC, and then cultured with the bacteria at 2×10^5 CFU/ml. By measuring the absorbance at 600 nm, the binding ability to the peptide was determined. Additionally, after reacting 0.1% […] with the peptide (40 μM) in an incubator, the secondary structure was examined by circular dichroism (CD) spectroscopy.

plasmid DNA (pRSETB) = assay: Binding between antimicrobial peptide and DNA (gel electrophoresis); conditions: peptide/DNA ratio 0.25:1 to 4:1, 10 minutes at 37° C.
Protocol: To figure out the working mechanism of the synthetic peptides of the present invention for showing the antimicrobial activity, electrophoresis was carried out to examine the possible binding of synthetic peptides, i.e., Hp1404, […], Hp1404-T1d and Hp1404-T1e, to DNA as an internal material of bacteria.
Specifically, after reacting the plasmid DNA (pRSETB, 260 ng) with the peptide at different ratio (i.e., peptide/DNA ratio is as follows for lane number 1 to lane number 8: DNA only, 0.25:1, 0.5:1, 1:1, 1.5:1, 2:1, 3:1, and 4:1. respectively) for 10 minutes at 37° C., they were subjected to electrophoresis using 1% agarose gel followed by ethidium bromide (EtBr) staining and UV visualization.

[5] = tested on: S. aureus or P. aeruginosa membrane; assay: Flow cytometry with propidium iodide; assay type: cell-based; conditions: 2×MIC, 1 hour at 37° C.
Protocol: Specifically, S. aureus or P. aeruginosa was treated for 1 hour at 37° C. with the mother peptide Hp1404, or Hp1404-T1c, Hp1404-T1d or Hp1404-T1e peptide (at concentration of 2×MIC). After that, the supernatant was removed by centrifuge (10,000 rpm) and stained with propidium iodide (PI, concentration of 10 μg/ml) for 30 minutes at 4° C. Thereafter, unbound propidium iodide was removed by centrifuge, and the problem of cell aggregation phenomenon was solved by adding physiological saline (PBS) in an amount of 1 ml.

[6] = Stability against trypsin enzyme (RP-HPLC); assay type: in vitro ADME; conditions: 20 nM trypsin, 37° C., read-out: amount of remaining peptide
Protocol: To determine whether or not the peptides prepared by the method of Example 1 have stability against an enzyme, RP-HPLC (reverse-phase HPLC) was carried out. Specifically, 20 μg of the peptide was reacted with 100 μl of trypsin at concentration of 20 nM for 1 to 2 hours at 37° C. After the reaction, 20 μl of the reaction product was applied to RP-HPLC, and the amount of remaining peptide was examined.

Compound	Minimal inhibitory concentration (L. monocytogenes) [µM]	Erythrocyte disrupting ability ([2]; peptide concentration 6.25 μM) [%]	Erythrocyte disrupting ability ([2]; peptide concentration 12.5 μM) [%]	Erythrocyte disrupting ability ([2]; peptide concentration 25 μM) [%]	Erythrocyte disrupting ability ([2]; peptide concentration 50 μM) [%]	Erythrocyte disrupting ability ([2]; peptide concentration 100 μM) [%]	Minimal inhibitory concentration (E. coli) [µM]	viability at 24 h, 6.25 µM [3] [%]	viability at 24 h, 12.5 µM [3] [%]	viability at 24 h, 25 µM [3] [%]	viability at 24 h, 50 µM [3] [%]	viability at 24 h, 100 µM [3] [%]	viability at 24 h, 200 µM [3] [%]	Minimal inhibitory concentration (S. aureus) [µM]	also measured
O=C(O)c1cn(C2CC2)c2cc(N3CCNCC3)c(F)cc2c1=O [ciprofloxacin, reference compound]	–	–	–	–	–	–	–	–	–	–	–	–	–	–	wound healing ([1]; 0.1 mg/ml and 0.2 mg/ml, intracutaneous, observed everyday): no wound healing at all; number of colonies, compared with peptide treatment ([1]; treated after the bacterial infection): higher than that obtained from the peptide treatment condition
ILGKLWEGVKSI-NH2 [Hp1404-T1]	>25	0	0	0	0	0	>25	100	100	100	100	100	100	>25	–
ILKKLLEGVKSI-NH2 [Hp1404-T1b]	>25	0.07	0.19	0	0	0	>25	100	100	100	100	80.9	31.9	>25	–
ILKKLLKGVKSI-NH2 [Hp1404-T1c]	–	0	0	0	0	0	–	100	100	100	51.3	48.6	–	–	binding to LPS, rank order [4]: binding to LPS increases in order of Hp1404-T1e, Hp1404-T1d, Hp1404-T1c, and Hp1404; binding to DNA (plasmid DNA (pRSETB)): did not bind to any DNA; propidium iodide fluorescence signal shift (membrane damage) [5]: no such shift of fluorescence signal; remaining at 1 h, 200 μg/mL ([6]; reaction for 1 hour): ≥ 80%; remaining at 2 h, 200 μg/mL ([6]; reaction for 2 hours): 80%
ILKKLWEGVKSI-NH2 [Hp1404-T1a]	–	0	0	0	0	0	–	100	100	100	100	100	30.7	–	–

Source: patent US11117931B2, “Antimicrobial peptide derived from Hp1404 peptide and uses thereof” (priority 2017, dated 2021)
